From patent US7537765B2, “Inhibition of HIV-1 replication by disruption of the processing of the viral capsid-spacer peptide 1 protein” (priority 2003, dated 2009) come the findings set out here.

For assay [1], the system named is DSB-resistant HIV-1 viruses. The experiment in a line: Western blot of CA-SP1 cleavage in drug-resistant viruses. It counts as cell-based. Conditions: drug-resistant viruses in the presence of DSB. Here is the method:
To determine if the resistant viruses were able to escape the CA-SP1 cleavage defect caused by DSB in wild-type virus, stocks of each virus grown in either the presence or absence of drug were analyzed by Western blot. Virus was pelleted through a 20% sucrose cushion from filtered culture supernatants that were collected 60 hr post-infection and 18 hr after the cells had been washed and fresh drug added. The viruses were lysed, and the amount of each virus was normalized by quantitating p24 levels in each sample.

Assay [2] relates to HIV-1 NL4-3 SP1 point deletion mutants. The experiment in a line: CA-SP1 processing of NL4-3 SP1 point deletion mutants in transfected HeLa cells (Western blot). Format: cell-based. The method, then: To characterize the effect of deletion or substitution on viral particle production and Gag polyprotein processing, wild-type HIV-1 NL4-3 or SIVmac239 and respective mutant proviral DNAs were transfected into HeLa cells by employing FuGENE 6 transfection reagent (Roche). Briefly, cells were seeded into a 6-well plate (Corning) at a concentration of 0.5×10^5 per well the day before transfection to reach 60 to 80% confluence on the day of transfection. For each transfection, 3 μl of FuGENE 6 was diluted into 100 μl of serum-free DMEM followed by the addition of 1 μg of DNA. After gently mixing, the mixture of DNA-lipid complexes was gently added drop wise into the cells containing 2 ml of complete DMEM medium. Twenty-four hours post-transfection, medium containing DNA-FuGENE 6 complexes was removed, 2 ml of fresh DMEM was added into the transfected cells. […] The level of viral particle production for wild type NL4-3 and point deletion mutants was determined by p24 antigen capture ELISA (ZeptoMetrix, Buffalo, N.Y.). […]
Sensitivity to DSB was determined in experiments that characterized the effect of DSB on a late step in Gag processing, CA-SP1 cleavage.
Specifically, these assays measured the ability of DSB to disrupt CA-SP1 processing.
A general note: In western blotting, separated proteins are transferred to a membrane and probed.

The test system of assay [3] is SIVmac239 chimeric virus. The assay is described as follows: Gag processing of SIVmac239 chimeric mutants with HIV-1 CA-SP1 residues (Western blot). Format: cell-based. Conditions: SIV DM chimeric virus (printed SWV.DM), 1 μg/ml. From the text:
A panel of SIV chimeric constructs harboring various residues of NL4-3 CA-SP1 boundary region was generated using the SIVmac239 molecular clone by employing PCR and cloning procedures described above. SIV mac239 was used to generate the SIV DD and DE constructs. The SIV DD construct was used to generate SIV DM. Different SIV chimeric constructs were produced in the PCR by varying respective mutagenic upstream and downstream primers corresponding to each chimera (Table 1). Each of these parallel two adjacent PCR fragments was gel purified and directly used without phospohorylation treatment for a subsequent amplification with universal upstream primer (Primer. 31) and downstream primer (Primer 32). This product was gel purified, digested with BamHI and SbfI, and then ligated into the BamHI and SbfI sites of SIVmac239 proviral DNA clone. The proviral DNA clones were then screened by automatically sequencing using a Taq Dye Deoxy Terminator cycle Sequencer Kit (Applied Biosystems) individually using an internal primer (Primer. 39). Following the verification the mutations the proviral DNA clones were used for various future studies. […]
Residues A364 through V370 were inserted into the analogous position of the Gag SP1 domain in the DSB-resistant retrovirus SIV (Mac 239 isolate). […] Next, the effect of DSB on the Gag processing phenotype of each of the chimeric viruses was determined. […]

Assay [4] concerns SIVmac251. The experiment in a line: Gag processing (western blot) in chronically infected H9/SIVmac251 cells. It counts as cell-based, SIV. Here is the method:
FIG. 2. […] Gag proteins were visualized using HIV-Ig (HIV-1) or monkey anti-SIVmac251 serum (HIV-2 and SIV; NIH AIDS Research and Reference Reagent Program).
In order to better define DSB's mechanism of action, a detailed examination was undertaken of the virus produced from HIV-1-infected cell lines treated with DSB. Briefly, H9 cells chronically infected with the HIV-1IIIB isolate were treated with DSB at 1 μg/mL for a period of 48 hrs. Indinavir was used as a control. At the 48 hr time-point, spent media was removed and fresh media containing compound was added. At 24, 48 and 72 hrs post fresh compound addition, both cells and supernatant were recovered for analysis. The level of virus in the culture supernatant was determined and western blots were used to characterize viral protein production in both cell-associated and cell-free virus. […] This defect took the form of an additional band in the western blots corresponding to p25 (FIG. 2). This p25 band results from the incomplete processing of the capsid CA-SP1 precursor. […] As discussed above, mutations at the p25 to p24 cleavage site that prevent processing are associated with defects in viral maturation and infectivity (Wiegers K. et al., J. Virol. 72:2846-54 (1998)).

Assay [5] concerns HIV-1 infectious molecular clone pNL4-3. The assay is described as follows: EM analysis of HeLa cells transfected with pNL4-3. Format: cell-based. To be noted: DSB-treated samples. From the text:
FIG. 3. EM analysis of DSB-treated HIV-1 infected cells. […] Virions generated in the presence of DSB are characterized by an absence of conical, mature cores. In these samples the cores are uniformly spherical and often acentric. Secondly, many virions display an electron dense layer inside the lipid bilayer but outside the core (indicated with arrows in the DSB-treated sample panels).
HeLa cells were transfected with HIV-1 infectious molecular clone pNL4-3 and treated as described previously with DSB. Following treatment, DSB-treated infected cells were fixed in glutaraldehyde and analyzed by EM.

As for `C=C(C)[C@@H]1CC[C@]2(C(=O)O)CC[C@]3(C)[C@H](CC[C@@H]4[C@@]5(C)CC[C@H](OC(=O)CC(C)(C)C(=O)O)C(C)(C)[C@@H]5CC[C@]43C)[C@@H]12` [DSB, 3-O-(3′,3′-dimethylsuccinyl)betulinic acid], the “CA-SP1 product in virus (Western blot)” value in assay [1] is given as “did not contain the CA-SP1 product”. Besides, the “effect on CA-SP1 processing” value is on record as “fully sensitive to DSB-induced disruption of CA-SP1 processing” in assay [2] (point deletions starting with residue T372 and extending away from the cleavage site, 1 μg/ml); “significantly reduces the affect of DSB on CA-SP1 processing” in assay [2] (single residue deletion at any of positions E365 through V370, 1 μg/ml). Further, in assay [3], the Gag processing phenotype entry was “indicative of sensitivity to DSB”. Moreover, the antiviral activity entry in assay [4] (SIV) was “lack of antiviral activity”. Also, the Gag processing entry in assay [4] (SIV chronically infected cell line, 1 μg/mL) is on record as “normal Gag processing”. Further, the “virion morphology by EM” value in assay [5] was “no mature viral particles were observed”.
